In patent US20260306640A1, “TECHNOLOGIES TARGETING CELL STATES” (Auron Therapeutics, Inc., priority 2023, published 2026):

Key:
[1] = target: KAT2A (Homo sapiens, UniProt Q92830); experiment: KAT2A degradation, Western Blot (Jess), NCI-H1048 cells; type: cell-based; design: degrader, Western blot (Jess); conditions: NCI-H1048 cells, KAT2A, 24 h, Western Blot, vs DMSO; read-out: KAT2A NCI-H1048 DC50
Procedure, shortened: (§1)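 DC50 came from protein loss relative to DMSO, measured by Jess capillary immunoblot of RIPA lysates with chemiluminescence read-out. Before lysis, NCI-H1048 cells in 5% FBS HITES medium were exposed to compound for 24 h at 37° C.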

[2] = target: KAT2B (Homo sapiens, UniProt Q92831); experiment: KAT2B degradation, Western Blot (Jess), NCI-H1048 cells; type: cell-based; design: degrader, Western blot (Jess); conditions: NCI-H1048 cells, KAT2B, 24 h, Western Blot, vs DMSO; read-out: KAT2B NCI-H1048 DC50
Procedure, shortened: as §1

KAT2B, sequence (Q92831 whole entry): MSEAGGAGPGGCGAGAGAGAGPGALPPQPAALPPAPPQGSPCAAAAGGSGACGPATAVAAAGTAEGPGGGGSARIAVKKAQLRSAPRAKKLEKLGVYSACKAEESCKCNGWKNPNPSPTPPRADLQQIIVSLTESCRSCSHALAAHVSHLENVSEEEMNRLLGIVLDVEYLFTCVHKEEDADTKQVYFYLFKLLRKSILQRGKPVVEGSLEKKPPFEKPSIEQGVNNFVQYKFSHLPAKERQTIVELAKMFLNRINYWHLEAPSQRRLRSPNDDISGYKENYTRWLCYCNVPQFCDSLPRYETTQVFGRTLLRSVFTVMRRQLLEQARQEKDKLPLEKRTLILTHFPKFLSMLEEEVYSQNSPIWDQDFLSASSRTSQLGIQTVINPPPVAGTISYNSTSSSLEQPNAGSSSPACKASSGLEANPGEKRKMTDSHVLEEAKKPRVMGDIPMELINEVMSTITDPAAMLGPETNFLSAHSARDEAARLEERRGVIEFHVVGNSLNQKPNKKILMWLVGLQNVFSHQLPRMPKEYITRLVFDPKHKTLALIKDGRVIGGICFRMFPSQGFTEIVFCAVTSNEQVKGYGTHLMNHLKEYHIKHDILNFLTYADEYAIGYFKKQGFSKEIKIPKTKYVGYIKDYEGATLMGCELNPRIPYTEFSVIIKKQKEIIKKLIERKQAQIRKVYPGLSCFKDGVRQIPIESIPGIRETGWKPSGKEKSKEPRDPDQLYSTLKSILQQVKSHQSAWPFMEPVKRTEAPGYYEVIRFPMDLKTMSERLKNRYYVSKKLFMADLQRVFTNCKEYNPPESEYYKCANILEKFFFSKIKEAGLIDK
KAT2A, sequence (Q92830 whole entry): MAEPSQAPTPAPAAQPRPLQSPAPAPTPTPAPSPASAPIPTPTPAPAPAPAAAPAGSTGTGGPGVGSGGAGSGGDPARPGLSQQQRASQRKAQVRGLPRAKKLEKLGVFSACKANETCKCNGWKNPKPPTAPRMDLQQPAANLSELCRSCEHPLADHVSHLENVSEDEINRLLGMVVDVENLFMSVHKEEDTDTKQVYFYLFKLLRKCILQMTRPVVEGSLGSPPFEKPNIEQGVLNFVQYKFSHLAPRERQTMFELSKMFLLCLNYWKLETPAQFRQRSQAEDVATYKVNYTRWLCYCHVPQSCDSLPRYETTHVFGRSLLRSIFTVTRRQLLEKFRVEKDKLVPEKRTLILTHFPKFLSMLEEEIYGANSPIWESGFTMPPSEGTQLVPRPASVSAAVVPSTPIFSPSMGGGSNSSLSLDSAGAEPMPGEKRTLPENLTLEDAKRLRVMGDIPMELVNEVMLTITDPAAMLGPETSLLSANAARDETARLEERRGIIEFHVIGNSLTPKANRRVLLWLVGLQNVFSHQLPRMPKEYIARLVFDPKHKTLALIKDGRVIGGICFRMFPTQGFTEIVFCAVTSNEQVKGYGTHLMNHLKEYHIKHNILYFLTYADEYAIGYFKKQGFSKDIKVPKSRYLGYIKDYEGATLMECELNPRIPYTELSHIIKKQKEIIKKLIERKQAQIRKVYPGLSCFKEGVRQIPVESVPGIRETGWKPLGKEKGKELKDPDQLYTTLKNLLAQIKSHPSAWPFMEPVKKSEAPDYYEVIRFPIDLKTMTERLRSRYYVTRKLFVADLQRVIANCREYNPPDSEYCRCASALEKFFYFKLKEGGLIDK

Row | SMILES | DC50 [1] | DC50 [2]
1 | CN1C[C@H](Nc2cnn(C)c(=O)c2Br)C[C@H](c2ccc(CN3CCN(c4ccc5nc(C6CCC(=O)NC6=O)ccc5c4)CC3)cc2)C1 (some centres unmarked) [Compound 385] | 1 to 30 nM | 1 to 30 nM
2 | CN1C[C@H](Nc2cnn(C)c(=O)c2Cl)C[C@H](c2ccc(CN3CCC4(CC3)CCN(c3ccc(C5CCC(=O)NC5=O)c(C(F)(F)F)c3)CC4)cc2)C1 (some centres unmarked) [Compound 343] | > 30 nM | > 30 nM
3 | CN1C[C@H](Nc2cnn(C)c(=O)c2Cl)C[C@H](c2ccc(C(=O)N3CCC4(CC3)CCN(c3ccc5c(C6CCC(=O)NC6=O)nccc5c3)CC4)cc2)C1 (some centres unmarked) [Compound 293] | < 1 nM | 1 to 30 nM
4 | Cc1c(N[C@@H]2C[C@H](c3ccc(CN4CCN(c5cc6c(cc5F)C(=O)N(C5CCC(=O)NC5=O)C6=O)CC4)cc3)CN(C)C2)cnn(C)c1=O (some centres unmarked) [Compound 306] | 1 to 30 nM | > 30 nM
5 | CN1C[C@H](Nc2cnn(C)c(=O)c2Br)C[C@H](c2ccc(CN3CCN(c4ccc5c(C6CCC(=O)NC6=O)cncc5c4)CC3)cc2)C1 (some centres unmarked) [Compound 380] | < 1 nM | < 1 nM
6 | CN1C[C@H](Nc2cnn(C)c(=O)c2Cl)C[C@H](c2ccc(CN3CCN(c4cc5c(cc4F)C(=O)N(C4CCC(=O)NC4=O)C5=O)CC3)cc2)C1 (some centres unmarked) [Compound 305] | 1 to 30 nM | > 30 nM
7 | CN1C[C@H](Nc2ccn(C)c(=O)c2Cl)C[C@H](c2ccc(C(=O)N3CCC4(CCC(c5ccc(C6CCC(=O)NC6=O)cc5)CC4)CC3)cc2)C1 (some centres unmarked) [Compound 314] | < 1 nM | 1 to 30 nM
8 | Cc1ncsc1-c1ccc(CNC(=O)[C@@H]2C[C@@H](O)CN2C(=O)[C@@H](NC(=O)CCCCCNC(=O)c2ccc([C@H]3C[C@@H](Nc4cnn(C)c(=O)c4Br)CN(C)C3)cc2)C(C)(C)C)cc1 [Compound 421] | > 30 nM | > 30 nM
9 | COc1cc(N2CCC3(CCN(C(=O)c4ccc([C@H]5C[C@@H](Nc6cnn(C)c(=O)c6Br)CN(C)C5)cc4)CC3)CC2)ccc1C1CCC(=O)NC1=O (some centres unmarked) [Compound 318] | < 1 nM | 1 to 30 nM
10 | CN1C[C@H](Nc2cnn(C)c(=O)c2Br)C[C@H](c2ccc(C(=O)N3CCC4(CC3)CCN(c3ccc5c(N6CCC(=O)NC6=O)nccc5c3)CC4)cc2)C1 [Compound 374] | < 1 nM | > 30 nM
11 | CN1C[C@H](Nc2cnn(C)c(=O)c2Br)C[C@H](c2ccc(C(=O)N3CCN(c4cccc5c4oc(=O)n5C4CCC(=O)NC4=O)CC3)cc2)C1 (some centres unmarked) [Compound 201] | < 1 nM | 1 to 30 nM
12 | CN1C[C@H](Nc2cnn(C)c(=O)c2Br)C[C@H](c2ccc(C(=O)N3CCC(c4ccc5c(C6CCC(=O)NC6=O)cncc5c4)CC3)cc2)C1 (some centres unmarked) [Compound 330] | < 1 nM | > 30 nM
13 | Cc1cc(N2CCC3(CC2)CN(C(=O)c2ccc([C@H]4C[C@@H](Nc5cnn(C)c(=O)c5Br)CN(C)C4)cc2)C3)ccc1C1CCC(=O)NC1=O (some centres unmarked) [Compound 292] | < 1 nM | 1 to 30 nM
14 | Cc1cc(N2CCC3(CCN(C(=O)c4ccc([C@H]5C[C@@H](Nc6cnn(C)c(=O)c6Br)CN(C)C5)cc4)CC3)CC2)ccc1OC1CCC(=O)NC1=O (some centres unmarked) [Compound 364] | < 1 nM | > 30 nM
15 | CN1C[C@H](Nc2cnn(C)c(=O)c2Cl)C[C@H](c2ccc(C(=O)N3CCC4(CCC(c5ccc6c(C7CCC(=O)NC7=O)cncc6c5)CC4)CC3)cc2)C1 (some centres unmarked) [Compound 329] | < 1 nM | < 1 nM
16 | Cc1cc(N2CCC3(CCN(c4ccc([C@H]5C[C@@H](Nc6cnn(C)c(=O)c6Br)CN(C)C5)cc4)CC3)CC2)ccc1C1CCC(=O)NC1=O (stereo partly drawn) [Compound 436, 3-(4-(9-(4-((3R,5R)-5-((5-bromo-1-methyl-6-oxo-1,6-dihydropyridazin-4-yl)amino)-1-methylpiperidin-3-yl)phenyl)-3,9-diazaspiro[5.5]undecan-3-yl)-2-methylphenyl)piperidine-2,6-dione] | < 1 nM | 1 to 30 nM
17 | Cc1c(N[C@@H]2C[C@H](c3ccc(C(=O)N4CCC5(CC4)CCN(c4cnc(C6CCC(=O)NC6=O)c(F)c4)CC5)cc3)CN(C)C2)cnn(C)c1=O (some centres unmarked) [Compound 272] | < 1 nM | > 30 nM
18 | Cc1c(N[C@@H]2C[C@H](c3ccc(CN4CCN(c5cc(C6CCC(=O)NC6=O)c(F)cc5F)CC4)cc3)CN(C)C2)cnn(C)c1=O (some centres unmarked) [Compound 360] | > 30 nM | > 30 nM
19 | COc1cc(C2CCC3(CC2)CCN(C(=O)c2ccc([C@H]4C[C@@H](Nc5cnn(C)c(=O)c5Cl)CN(C)C4)cc2)CC3)ccc1C1CCC(=O)NC1=O (some centres unmarked) [Compound 319] | < 1 nM | 1 to 30 nM
20 | Cc1cc(N2CCC3(CCN(C(=O)c4ccc([C@H]5C[C@@H](Nc6cnn(C)c(=O)c6Cl)CN(C)C5)cc4)CC3)CC2)cnc1C1CCC(=O)NC1=O (some centres unmarked) [Compound 247] | < 1 nM | 1 to 30 nM
21 | CN1C[C@H](Nc2cnn(C)c(=O)c2Cl)C[C@H](c2ccc(CN3CCN(c4ccnc(C5CCC(=O)NC5=O)c4)CC3)cc2)C1 (some centres unmarked) [Compound 351] | 1 to 30 nM | > 30 nM
22 | CN1C[C@H](Nc2cnn(C)c(=O)c2Br)C[C@H](c2ccc(C(=O)N3CC(C#Cc4ccc(C5CCC(=O)NC5=O)cc4)C3)cc2)C1 (some centres unmarked) [Compound 337] | < 1 nM | > 30 nM

Continued, values first:

Row | DC50 [1] | DC50 [2] | SMILES
23 | < 1 nM | < 1 nM | CN1C[C@H](Nc2cnn(C)c(=O)c2Cl)C[C@H](c2ccc(C(=O)N3CCC4(CC3)CCN(c3ccc5c(c3)oc(=O)n5C3CCC(=O)NC3=O)CC4)cc2)C1 (some centres unmarked) [Compound 209]
24 | < 1 nM | < 1 nM | CN1C[C@H](Nc2cnn(C)c(=O)c2Cl)C[C@H](c2ccc(CN3CCC(c4ccc5c(C6CCC(=O)NC6=O)cncc5c4)C(F)(F)C3)cc2)C1 (some centres unmarked) [Compound 389]
25 | < 1 nM | 1 to 30 nM | Cc1c(N[C@@H]2C[C@H](c3ccc(C(=O)N4CCC5(CC4)CCN(c4ccc(C6CCC(=O)NC6=O)c(F)c4F)CC5)cc3)CN(C)C2)cnn(C)c1=O (some centres unmarked) [Compound 252]
26 | < 1 nM | > 30 nM | CN1C[C@H](Nc2cnn(C)c(=O)c2Cl)C[C@H](c2ccc(N3CCC4(CC3)CCN(c3cccc(CN5CCC(=O)NC5=O)c3)CC4)cc2)C1 [Compound 401]
27 | < 1 nM | 1 to 30 nM | CN1C[C@H](Nc2cnn(C)c(=O)c2Br)C[C@H](c2ccc(C(=O)N3CCC4(CC3)CCN(c3ccc(C5CCC(=O)NC5=O)cc3C(F)(F)F)CC4)cc2)C1 (some centres unmarked) [Compound 220]
28 | < 1 nM | < 1 nM | Cc1cc(N2CCC3(CCN(C(=O)c4ccc([C@H]5C[C@@H](Nc6cnn(C)c(=O)c6Cl)CN(C)C5)cc4)CC3)CC2)ccc1N1CCC(=O)NC1=O [Compound 396]
29 | < 1 nM | 1 to 30 nM | CN1C[C@H](Nc2cnn(C)c(=O)c2Br)C[C@H](c2ccc(COc3ccc4c(=O)n(C5CCC(=O)NC5=O)ccc4c3)cc2)C1 (stereo partly drawn) [Compound 433, 3-(6-((4-((3R,5R)-5-((5-bromo-1-methyl-6-oxo-1,6-dihydropyridazin-4-yl)amino)-1-methylpiperidin-3-yl)benzyl)oxy)-1-oxoisoquinolin-2(1H)-yl)piperidine-2,6-dione]
30 | < 1 nM | < 1 nM | CN1C[C@H](Nc2cnn(C)c(=O)c2Br)C[C@H](c2ccc(CN3CCN(c4ccc5c(C6CCC(=O)NC6=O)nccc5c4)CC3)cc2)C1 (some centres unmarked) [Compound 382]
31 | < 1 nM | > 30 nM | Cc1c(N[C@@H]2C[C@H](c3ccc(COc4ccc5c(c4)C(=O)N(C4CCC(=O)NC4=O)C5=O)cc3)CN(C)C2)cnn(C)c1=O (some centres unmarked) [Compound 192]
